Assay results published in US20020061509A1, “Screening assay for the identification of agents which alter expression of PTH-rP” (Osteo Screen, priority 1996, published 2002).

Legend:
[1] = tested on: RWGT2 cells (human squamous cell carcinoma of the lung); assay: Hypercalcemia study: nude mice inoculated with RWGT2 cells; format: in vivo, BALB/c nude mice
Experimental: (§1) Compounds which are identified as regulating PTH-rP production were initially tested for their capacity to inhibit hypercalcemia in vivo by injecting tumor cells into nude mice and treating the mice with the potential inhibitory compounds. Specifically, compounds to be tested were injected into the subcutaneous tissue, intramuscularly, or intravenously into nude mice which were also inoculated with the human cancer cells which produce PTH-rP. The effects on the capacity of the tumor cells to cause hypercalcemia are then assessed over 2-4 weeks.
The tumor, designated RWGT2, is a human squamous cell carcinoma of the lung that was obtained from a hypercalcemic cancer patient (Guise et al, 1993). Metastatic tumor tissue was taken at the time of surgical repair of a pathologic fracture of the femur and implanted into athymic nude mice. The mice developed hypercalcemia, tumors, and increased serum PTH-rP concentrations. Tumor tissue from the mice was used to establish this cell line in culture. The cells produced PTH-rP in culture and reliably produced tumors and hypercalcemia when inoculated intramuscularly into the nude mice.
The RWGT2 cells are grown in culture in T75 flasks in α-minimal essential medium (αMEM, Hazelton Biologics Inc., Lenexa, Kans.) with 10% fetal calf serum and passaged twice a week. The mice are inoculated with RWGT2 cells by subcutaneous inoculation of 1×10^6 cells into the right flank of the upper leg.
All animal studies are conducted in accordance with the NIH Guide for the Care and Use of Laboratory Animals. Male BALB/c nude mice (Harlen), 4-6 weeks of age, are housed in a laminar flow isolator hood with a 12-hour-light/12-hour-dark cycle. Water, supplemented with multivitamins (Lymphomed, Melrose Park, Ill.) and autoclaved mouse chow (Ralston-Purina, St. Louis, Mo.) were provided ad libitum.
Weekly, the mice (each group n=5) are weighed and tumor diameters (long axis and mean axis width) are measured using calipers. Also whole blood samples for ionized calcium (Ca^2+) determination is obtained by retro-orbital puncture under anesthesia and measured using a Ciba Corning 634 ISE Ca^++/pH analyzer. Finally, blood samples for PTH-rP measurements is obtained by retro-orbital puncture and collected on ice, into pediatric vacutainer tubes containing ethylenediamine tetraacetate (EDTA) (Becton Dickinson, Rutherford, N.J.) and aprotinin (Sigma Chemical Company, St. Louis, Mo.), 400KIU/ml and stored at −70° C. Immunoreactive PTH-rP is measured using a 2 site IRMA kit available from Nichols Institute (San Juan Capistrano, Calif.).
For all experiments compound is administered when hypercalcemia is evident (treatment phase) or from the time of inoculation of RWGT2 cells (prevention phase).

[2] = tested on: MDA-MB-231 cells (human breast cell carcinoma); assay: Osteolytic bone metastases study: nude mice inoculated with MDA-MB-231 cells into the left ventricle; format: in vivo, BALB/c nude mice; conditions: 50 mg/kg/day; vs vehicle alone
Experimental: as §1, with “inhibit bone metastases” for “inhibit hypercalcemia”, “cause osteolytic bone lesions” for “cause hypercalcemia”
The tumor, named MDA-MB-231, is a human breast cell carcinoma. […]
Weekly, the mice are weighed and whole blood samples for ionized calcium (Ca^2+) determination are obtained by retro-orbital puncture under anesthesia and measured using a Ciba Coming 634 ISE Ca^++/pH analyzer.
The number of osteolytic bone metastases is determined on radiographs as described by Nakai (1992). […] The area of osteolytic bone metastases is calculated using a computerized image analysis system in which examination of osteolytic lesions from radiographs is achieved using a fluorescent light box (Kaiser, Germany) and Macro TV Zoom lens 18-108 mm f2,5 (Olympus, Japan) attached to a color video camera (Model DXC- 1 51 Sony, Japan). […] Quantitation of lesion area is performed using image analysis software (Java, Jandel Video Analysis, Jandel Scientific, Calif.). […]

PTH-rP promoter = assay: PTH-rP promoter-firefly luciferase reporter assay in stably transfected MDA-MB-231 cells (Clone 30); format: cell-based, human; conditions: concentration of 3.2 μM
Experimental: To perform studies on the PTH-rP promoter in whole cells, a human breast cancer cell line, MDA-MB-23 1 (kindly provided by C. Kent Osborne, San Antonio Tex.) and a human lung cancer cell line, RWGT2, were employed. Various PTH-rP promoters, described in Wysolmerski et al., 1996, were linked with the reporter gene firefly luciferase and stably transfected into cell lines. Plasmid constructs included pGL3B-PTH-rP1.1 and pGL4B-PTHrP 4.0. RWGT2 cells and MDA-MB-231 cells were cultured in DMEM (Life Technologies, Grand Island, N.Y.) with 10% FCS (Hyclone, Logan, Utah), 0.1% penicillin/streptomycin and 0.1% nonessential amino acids (Gibco) in 37° C. atmosphere of 5% CO2 /air.
Before stable transfection of MDA-MB-231 cells with pGL3B-PTH-rP1.1, the concentration of geneticin (G418) required to kill MDA 231 cells was determined to be 500 μg/ml. […]
Sucloning consisted of diluting the geneticin resistant MDA-MB-2311 cells containing pGL3B-PTHrP1.1 to a concentration of 0.3 cells/100 μl. […] The luciferase activity was assessed by luminometer. […] Routinely, 20 μl of cell lysate was mixed with 100 μl of luciferase assay reagent (270 μM co-enzyme A, 470 μM luciferin and 530 μM ATP) and the luciferase activity was measured for 10 seconds in a Turner TD-20e luminometer. […] The protein concentration was assessed using BioRed reagents. […]

[3] = 50 mg/kg/day, administered from day 0 (prevention phase), vs vehicle alone

C(=NNc1nnn[nH]1)c1ccccc1 [OSW3, 5-benzylidene hydrazino-1,2,34-tetrazole]
PTH-rP concentrations [1, 3]: able to lower | whole blood calcium concentrations [1, 3]: able to lower whole blood calcium concentrations | whole blood calcium concentrations ([1]; 50 mg/kg/day, after hypercalcemia is evident (treatment phase), vs vehicle alone): able to lower whole blood calcium concentrations | lesion area of osteolytic metastases [2]: able to significantly lower | lesion number of osteolytic metastases [2]: able to significantly lower

Nc1nc2nc[nH]c2c(=S)[nH]1 [OSW6, 6-thioguanine]
whole blood calcium concentrations ([1]; 10 mg/kg/day, administered from day 0 (prevention phase), vs vehicle alone): able to significantly lower whole blood calcium concentrations | whole blood calcium concentrations ([1]; 10 mg/kg/day, after hypercalcemia is evident (treatment phase), vs vehicle alone): able to lower whole blood calcium concentrations | size of the tumor ([1]; hypercalcemic mice treated (treatment phase)): reduced

C[n+]1c2cc(N)ccc2cc2ccc(N)cc21.[Cl-] [MS 01500618, acriflavinium hydrochloride]
stimulation of the PTH-rP promoter assay (PTH-rP promoter): about 8 fold
